Results: US8367313B2, “Method of determining sperm capacitation” (Cornell University, priority 2003, dated 2013)
Entries after “also recorded” stand apart in the source; their conditions may differ. Like-named read-outs stand apart in the source and are kept apart here.

Legend:
murine sperm = assay: Protein tyrosine phosphorylation / capacitation of sperm; assay type: cell-based, mouse
[1] = test system: GM1 localization in murine sperm; assay type: cell-based, mouse
[2] = test system: sterols in sperm plasma membrane; details: exposure of sperm to sterol acceptor; cited from earlier work
[3] = incubation with the stimulus alone
[4] = Fixative A: 0.004% paraformaldehyde, mouse sperm
[5] = Fixative B: 1.25% paraformaldehyde, 2.5% glutaraldehyde, 100 mM sodium cacodylate, 0.5 mM CaCl2
[6] = Fixative C: 4% paraformaldehyde, 0.1% glutaraldehyde, 1 mM CaCl2

Compound: [Ca+2] [Ca^++]
- ability to cause tyrosine phosphorylation or capacitation (murine sperm; [3]): not sufficient

Compound: O=C([O-])O.[Na+] [NaHCO3]
- GM1 staining localization after exposure to stimulus [1]: staining was observed in the apical acrosome and post-acrosomal region
- sperm with Pattern D (diffuse) [1]: 3.2%
- ability to cause tyrosine phosphorylation or capacitation (murine sperm): not sufficient

Compound: CC(=O)[C@H]1CC[C@H]2[C@@H]3CCC4=CC(=O)CC[C@]4(C)[C@H]3CC[C@]12C [progesterone]
- GM1 staining localization after induction of acrosomal exocytosis ([1]; after capacitating incubation (bicarbonate and 2-OHCD), then progesterone 10 μg/ml for 10 minutes): a signal over the apical acrosome alone; also recorded: concentrated in the region of the apical acrosome

Compound: (2-hydroxypropyl)-β-cyclodextrin [2-OHCD]
- shift in CTb labeling pattern (FIG. 3/FIG. 4 patterns A, B, C) ([1]; 45 minute incubation, 10 mM HCO3− or 3 mM 2-OHCD, 0.004% paraformaldehyde): shifts to pattern “C.”
- sperm with Pattern A (acrosomal) [1, 4]: Ns
- sperm with Pattern AA/PA (apical acrosome and post-acrosomal) [1, 4]: 28.8%
- sperm with Pattern D (diffuse) [1, 4]: 40.4%
- sperm with Pattern PA (post-acrosomal) [1, 4]: 37.9%
- sperm with Pattern D (diffuse) ([1]; Fixative A: 0.004% paraformaldehyde, mouse sperm, listed as cyclodextrin): approximately 40%
- sperm with Pattern A (acrosomal) [1, 5]: 41.8%
- sperm with Pattern AA/PA (apical acrosome and post-acrosomal) [1, 5]: 0%
- sperm with Pattern D (diffuse) [1, 5]: 0%
- sperm with Pattern PA (post-acrosomal) [1, 5]: 58.2%
- sperm with Pattern A (acrosomal) [1, 6]: 80.5%
- sperm with Pattern AA/PA (apical acrosome and post-acrosomal) [1, 6]: 0.2%
- sperm with Pattern D (diffuse) [1, 6]: 0%
- sperm with Pattern PA (post-acrosomal) [1, 6]: 19.4%
- GM1 staining localization after exposure to stimulus ([1]; sperm fixed with 0.004% paraformaldehyde): a signal in the plasma membrane overlying the acrosome as well as in the post-acrosomal region
- effect on filipin-sterol complexes (FSC) [2]: loss of most FSC from the plasma membrane overlying the acrosome
- ability to cause tyrosine phosphorylation or capacitation (murine sperm; [3]): not sufficient

Compound: bovine serum albumin [BSA]
- effect on filipin-sterol complexes (FSC) [2]: loss of most FSC from the plasma membrane overlying the acrosome
